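These data come from cells grown in 96-well plates and exposed to compound for 48 hours at five concentrations. At the GI50, growth is halved.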 Active and inactive are the calls of the source. Rule as the data show it: active = GI50 up to about 1.1 µM and inactive = higher.
Assays:
Assay in all cases: NCI tumour cell line growth inhibition, 48 h
UACC-62 = system: UACC-62
SF-268 = system: SF-268
SNB-75 = system: SNB-75
HOP-92 = system: HOP-92
SR = system: SR
M19-MEL = system: M19-MEL
RPMI-8226 = system: RPMI-8226
HL-60 = system: HL-60
OVCAR-4 = system: OVCAR-4
MOLT-4 = system: MOLT-4
NCI-H23 = system: NCI-H23
CCRF-CEM = system: CCRF-CEM
COLO 205 = system: COLO 205
K562 = system: K562
M14 = system: M14
Malme-3M = system: Malme-3M
DMS-114 = system: DMS-114
RXF 631 = system: RXF 631
A498 = system: A498
CAKI-1 = system: CAKI-1
IGROV-1 = system: IGROV-1
786-0 = system: 786-0
UO-31 = system: UO-31
SK-MEL-28 = system: SK-MEL-28
SK-OV-3 = system: SK-OV-3
ACHN = system: ACHN
HOP-62 = system: HOP-62
HCT-116 = system: HCT-116
LXFL 529 = system: LXFL 529
SF-539 = system: SF-539
XF498 = system: XF498
HCC 2998 = system: HCC 2998
NCI-H522 = system: NCI-H522
DMS-273 = system: DMS-273
NCI-H226 = system: NCI-H226
SN12C = system: SN12C
DLD-1 = system: DLD-1
SK-MEL-2 = system: SK-MEL-2
KM-20L2 = system: KM-20L2
OVCAR-3 = system: OVCAR-3
RXF 393 = system: RXF 393
TK-10 = system: TK-10
NCI-H460 = system: NCI-H460
SK-MEL-5 = system: SK-MEL-5
A549 = system: A549
HT-29 = system: HT-29
KM12 = system: KM12
SF-295 = system: SF-295
OVCAR-8 = system: OVCAR-8
UACC-257 = system: UACC-257
EKVX = system: EKVX
OVCAR-5 = system: OVCAR-5
SNB-19 = system: SNB-19
SW-620 = system: SW-620

Measured: GI50

Cc1ncc(CCl)c(CCl)c1O
inactive: UACC-62 > 100 µM | SF-268 > 100 µM | SNB-75 > 100 µM | HOP-92 > 100 µM | SR > 100 µM | M19-MEL > 100 µM | RPMI-8226 > 100 µM | HL-60 > 100 µM | OVCAR-4 > 100 µM | MOLT-4 > 100 µM | NCI-H23 > 100 µM | CCRF-CEM > 100 µM | COLO 205 > 100 µM | K562 > 100 µM | M14 > 100 µM | Malme-3M > 100 µM | DMS-114 > 100 µM | RXF 631 > 100 µM | A498 > 100 µM | CAKI-1 > 100 µM | IGROV-1 > 100 µM | 786-0 > 100 µM | UO-31 > 100 µM | SK-MEL-28 > 100 µM | SK-OV-3 > 100 µM | ACHN > 100 µM | HOP-62 > 100 µM | HCT-116 > 100 µM | LXFL 529 > 100 µM | SF-539 > 100 µM | XF498 > 100 µM | HCC 2998 > 100 µM | NCI-H522 > 100 µM | DMS-273 > 100 µM | NCI-H226 > 100 µM | SN12C > 100 µM | DLD-1 > 100 µM | SK-MEL-2 > 100 µM

C[N+](C)(C)CC(=O)N/N=C(/Cc1nc2ccc([N+](=O)[O-])cc2nc1O)C(=O)Nc1cc(C(F)(F)F)ccc1Cl
inactive: UACC-62 94.2 µM | SF-268 > 100 µM | KM-20L2 > 100 µM | OVCAR-3 > 100 µM | HOP-92 62.1 µM | SR > 100 µM | M19-MEL > 100 µM | RPMI-8226 63.1 µM | HL-60 > 100 µM | OVCAR-4 > 100 µM | RXF 393 > 100 µM | MOLT-4 > 100 µM | TK-10 > 100 µM | NCI-H460 > 100 µM | NCI-H23 > 100 µM | CCRF-CEM 66.7 µM | COLO 205 > 100 µM | K562 > 100 µM | M14 > 100 µM | Malme-3M > 100 µM | DMS-114 75 µM | SK-MEL-5 > 100 µM | RXF 631 > 100 µM | A498 > 100 µM | CAKI-1 > 100 µM | A549 > 100 µM | HT-29 > 100 µM | KM12 > 100 µM | IGROV-1 > 100 µM | 786-0 > 100 µM | UO-31 40.8 µM | SK-MEL-28 > 100 µM | SK-OV-3 > 100 µM | SF-295 > 100 µM | ACHN > 100 µM | HOP-62 > 100 µM | OVCAR-8 > 100 µM | HCT-116 > 100 µM | UACC-257 > 100 µM | SF-539 > 100 µM | EKVX 76 µM | OVCAR-5 > 100 µM | HCC 2998 > 100 µM | SNB-19 > 100 µM | NCI-H522 28.4 µM | SN12C > 100 µM | DLD-1 > 100 µM | SK-MEL-2 > 100 µM | SW-620 > 100 µM

Source: ChEMBL document CHEMBL1201862, “PubChem BioAssay data set” (2004)
